Where two headings read alike, the source gives them in different places. Starred links: 1 amine or outer side, 2 acyl side, 3 side chain; linkers in the order of their positions; H or OH if unused. Positions of bridges follow the written chain, without caps; N, C: chain ends. Non-standard residues stand in square brackets, D forms with d. Residues, ends and D or L forms follow the SMILES beside them. ξ: configuration not given here. X2 = CCOc1ccc(-c2[nH]c3ccccc3c2C[C@H](N[*:1])C(=O)[*:2])cc1; Phe(3,4-Me2) = Cc1ccc(C[C@H](N)C(=O)O)cc1C; Phe(2-OMe) = COc1ccccc1C[C@H](N)C(=O)O; Phe(3-F) = N[C@@H](Cc1cccc(F)c1)C(=O)O; hhPhe = N[C@@H](CCCc1ccccc1)C(=O)O; Hyp = O=C(O)[C@@H]1C[C@@H](O)CN1; AllylGly = C=CC[C@H](N)C(=O)O; NMeNle = CCCC[C@H](NC)C(=O)O; ξR = N=C(N)NCCCC(N)C(=O)O; NMeA = CN[C@@H](C)C(=O)O; Dab = NCC[C@H](N)C(=O)O; Dap = NC[C@H](N)C(=O)O
Tests used:
[1] = target: T1, LK35.2-hPD-L1 cells / PE-labeled PD-1-Ig (Homo sapiens, UniProt Q9NZQ7); assay: LK35.2-hPD-L1 cell binding high-content screening assay; format: cell-based; conditions: cell binding assay, cell line not given
T1 construct: expressed in transfected cells; host or cells: LK35.2 mouse B cell line
In short: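 Binding of PE-conjugated human PD-1-Ig (1 nM final) to human PD-L1 stably expressed on a mouse B-cell line (LK35.2) was measured by high-content imaging after washes. Compound and labeled PD-1-Ig were co-incubated 1 h at 37 °C with cells in RPMI/10% FCS.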

Human PD-L1/PD-1 = target: T2, Human PD-L1/PD-1 (Homo sapiens, UniProt Q9NZQ7); assay: HTRF PD-1-Ig/PD-L1-His binding assay (human PD-L1)
T2 construct: made in house; host or cells: HEK293T
In short: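 Interaction of Fc-tagged soluble PD-1 with His-tagged soluble PD-L1 is monitored by time-resolved FRET. Donor is europium cryptate anti-Ig (1 nM final) and acceptor is APC anti-His (20 nM final). Assay buffer is dPBS with 0.1% BSA and 0.05% Tween-20.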

[2] = cluster symbol, read-out: CBA IC50 cluster
[3] = cluster symbol, read-out: HTRF IC50 cluster

T2 sequence (Q9NZQ7 with tags, fused parts or gaps): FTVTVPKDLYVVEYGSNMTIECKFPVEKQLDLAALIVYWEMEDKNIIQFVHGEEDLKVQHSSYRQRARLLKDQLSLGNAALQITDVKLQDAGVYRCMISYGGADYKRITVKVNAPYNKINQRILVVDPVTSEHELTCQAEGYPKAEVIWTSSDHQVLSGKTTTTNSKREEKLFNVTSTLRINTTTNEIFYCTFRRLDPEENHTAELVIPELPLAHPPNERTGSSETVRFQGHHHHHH
T1 sequence (Q9NZQ7 19-290): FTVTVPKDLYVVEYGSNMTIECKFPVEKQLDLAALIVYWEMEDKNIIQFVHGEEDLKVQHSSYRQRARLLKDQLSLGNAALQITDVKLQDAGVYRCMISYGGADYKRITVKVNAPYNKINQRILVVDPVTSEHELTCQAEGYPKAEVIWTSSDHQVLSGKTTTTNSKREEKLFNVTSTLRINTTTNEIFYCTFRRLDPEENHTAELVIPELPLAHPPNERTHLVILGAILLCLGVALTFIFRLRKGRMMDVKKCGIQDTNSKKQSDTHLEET

CCCC[C@H]1C(=O)N(C)[C@@H](CCCC)C(=O)NC(CCCNC(=N)N)C(=O)N[C@H](C(=O)NCC(N)=O)CSCC(=O)N[C@@H](Cc2ccc(O)cc2)C(=O)N(C)[C@@H](C)C(=O)N[C@@H](CC(N)=O)C(=O)N2CCC[C@H]2C(=O)N[C@@H](CCN)C(=O)N[C@@H](CC(C)C)C(=O)N2C[C@H](O)C[C@H]2C(=O)N[C@@H](Cc2c[nH]c3ccccc23)C(=O)N[C@@H](CO)C(=O)N[C@@H](Cc2c(-c3ccc(OCC)cc3)[nH]c3ccccc23)C(=O)N1C (stereo partly shown) [Example 7010] ({CH2CO}-Y[NMeA]NP[Dab]L[Hyp]WS[X2][NMeNle][NMeNle][ξR]CG-NH2; thioether N-14)
IC50 [1, 2]: 4.78 to 72.9 nM | IC50 (Human PD-L1/PD-1; [3]): 0.385 to 6.74 nM

CCCC[C@H]1C(=O)N(C)[C@@H](CCCC)C(=O)NC(CCCNC(=N)N)C(=O)N[C@H](C(=O)NCC(N)=O)CSCC(=O)N[C@@H](Cc2ccc(O)cc2)C(=O)N(C)[C@@H](C)C(=O)N[C@@H](CC(N)=O)C(=O)N2CCC[C@H]2C(=O)N[C@@H](CN)C(=O)N[C@@H](CC(C)C)C(=O)N2CCC[C@H]2C(=O)N[C@@H](Cc2c[nH]c3ccccc23)C(=O)N[C@@H](CO)C(=O)N[C@@H](Cc2c(-c3ccc(OCC)cc3)[nH]c3ccccc23)C(=O)N1C (stereo partly shown) [Example 7011] ({CH2CO}-Y[NMeA]NP[Dap]LPWS[X2][NMeNle][NMeNle][ξR]CG-NH2; thioether N-14)
IC50 [1, 2]: 4.78 to 72.9 nM | IC50 (Human PD-L1/PD-1; [3]): 0.385 to 6.74 nM

CCCC[C@H]1C(=O)N(C)[C@@H](CCCC)C(=O)N[C@@H](CCCNC(=N)N)C(=O)N[C@H](C(=O)NCC(N)=O)C/C=C/C(=O)N[C@@H](Cc2ccc(O)cc2)C(=O)N(C)[C@@H](C)C(=O)N[C@@H](CC(N)=O)C(=O)N2CCCC2C(=O)N[C@@H](Cc2cnc[nH]2)C(=O)N[C@@H](CC(C)C)C(=O)N2CCC[C@H]2C(=O)N[C@@H](Cc2c[nH]c3ccccc23)C(=O)N[C@@H](CO)C(=O)N[C@@H](Cc2c[nH]c3ccccc23)C(=O)N1C (stereo partly shown) [Example 7012]
IC50 [1, 2]: > 74.3 nM | IC50 (Human PD-L1/PD-1; [3]): > 30.5 nM

CCCC[C@H]1C(=O)N(C)[C@@H](CCCC)C(=O)N[C@@H](CCCNC(=N)N)C(=O)N[C@H](C(=O)NCC(N)=O)C/C=C/C(=O)N[C@@H](Cc2ccc(O)cc2)C(=O)N(C)[C@@H](C)C(=O)N[C@@H](CC(N)=O)C(=O)N2CCCC2C(=O)N[C@@H](CN)C(=O)N[C@@H](CC(C)C)C(=O)N2C[C@H](O)C[C@H]2C(=O)N[C@@H](Cc2c[nH]c3ccccc23)C(=O)N[C@@H](CO)C(=O)N[C@@H](Cc2c[nH]c3ccccc23)C(=O)N1C (stereo partly shown) [Example 7013]
IC50 [1, 2]: 4.78 to 72.9 nM | IC50 (Human PD-L1/PD-1; [3]): 6.76 to 30.3 nM

C=CC[C@@H]1NC(=O)[C@H](Cc2c[nH]c3ccccc23)NC(=O)[C@@H]2CCCN2C(=O)[C@H](CC(C)C)NC(=O)[C@H](Cc2cnc[nH]2)NC(=O)[C@@H]2CCCN2C(=O)[C@H](CC(N)=O)NC(=O)[C@H](C)N(C)C(=O)[C@H](Cc2ccc(O)cc2)NC(=O)CSC[C@@H](C(=O)NCC(N)=O)NC(=O)[C@H](CC=C)NC(=O)[C@H](CCCC)N(C)C(=O)[C@H](CCCC)N(C)C(=O)[C@H](Cc2c[nH]c3ccccc23)NC1=O [Example 7014] ({CH2CO}-Y[NMeA]NPHLPW[AllylGly]W[NMeNle][NMeNle][AllylGly]CG-NH2; thioether N-14)
IC50 [1, 2]: 0.158 to 4.71 nM | IC50 (Human PD-L1/PD-1; [3]): 0.385 to 6.74 nM

CCCC[C@H]1C(=O)N(C)[C@@H](CCCC)C(=O)N[C@@H](CCCNC(=N)N)C(=O)N[C@H](C(=O)NCC(N)=O)CSCC(=O)N[C@@H](Cc2ccc(C)c(C)c2)C(=O)N(C)[C@@H](C)C(=O)N[C@@H](CC(N)=O)C(=O)N2CCC[C@H]2C(=O)N[C@@H](Cc2cnc[nH]2)C(=O)N[C@@H](CC(C)C)C(=O)N2CCC[C@H]2C(=O)N[C@@H](Cc2c[nH]c3ccccc23)C(=O)N[C@@H](CO)C(=O)N[C@@H](Cc2c[nH]c3ccccc23)C(=O)N1C [Example 7015] ({CH2CO}-[Phe(3,4-Me2)][NMeA]NPHLPWSW[NMeNle][NMeNle]RCG-NH2; thioether N-14)
IC50 [1, 2]: 4.78 to 72.9 nM | IC50 (Human PD-L1/PD-1; [3]): 6.76 to 30.3 nM

CCCC[C@H]1C(=O)N(C)[C@@H](CCCC)C(=O)N[C@@H](CCCNC(=N)N)C(=O)N[C@H](C(=O)NCC(N)=O)CSCC(=O)N[C@@H](Cc2cccc(F)c2)C(=O)N(C)[C@@H](C)C(=O)N[C@@H](CC(N)=O)C(=O)N2CCC[C@H]2C(=O)N[C@@H](Cc2cnc[nH]2)C(=O)N[C@@H](CC(C)C)C(=O)N2CCC[C@H]2C(=O)N[C@@H](Cc2c[nH]c3ccccc23)C(=O)N[C@@H](CO)C(=O)N[C@@H](Cc2c[nH]c3ccccc23)C(=O)N1C [Example 7016] ({CH2CO}-[Phe(3-F)][NMeA]NPHLPWSW[NMeNle][NMeNle]RCG-NH2; thioether N-14)
IC50 [1, 2]: 4.78 to 72.9 nM | IC50 (Human PD-L1/PD-1; [3]): 6.76 to 30.3 nM

CCCC[C@H]1C(=O)N(C)[C@@H](CCCC)C(=O)N[C@@H](CCCNC(=N)N)C(=O)N[C@H](C(=O)NCC(N)=O)CSCC(=O)N[C@@H](Cc2ccccc2OC)C(=O)N(C)[C@@H](C)C(=O)N[C@@H](CC(N)=O)C(=O)N2CCC[C@H]2C(=O)N[C@@H](Cc2cnc[nH]2)C(=O)N[C@@H](CC(C)C)C(=O)N2CCC[C@H]2C(=O)N[C@@H](Cc2c[nH]c3ccccc23)C(=O)N[C@@H](CO)C(=O)N[C@@H](Cc2c[nH]c3ccccc23)C(=O)N1C [Example 7017] ({CH2CO}-[Phe(2-OMe)][NMeA]NPHLPWSW[NMeNle][NMeNle]RCG-NH2; thioether N-14)
IC50 [1, 2]: 4.78 to 72.9 nM | IC50 (Human PD-L1/PD-1; [3]): 0.385 to 6.74 nM

CCCC[C@H]1C(=O)N(C)[C@@H](CCCC)C(=O)N[C@@H](CCCNC(=N)N)C(=O)N[C@H](C(=O)NCC(N)=O)CSCC(=O)N[C@@H](CCCc2ccccc2)C(=O)N(C)[C@@H](C)C(=O)N[C@@H](CC(N)=O)C(=O)N2CCC[C@H]2C(=O)N[C@@H](Cc2cnc[nH]2)C(=O)N[C@@H](CC(C)C)C(=O)N2CCC[C@H]2C(=O)N[C@@H](Cc2c[nH]c3ccccc23)C(=O)N[C@@H](CO)C(=O)N[C@@H](Cc2c[nH]c3ccccc23)C(=O)N1C [Example 7018] ({CH2CO}-[hhPhe][NMeA]NPHLPWSW[NMeNle][NMeNle]RCG-NH2; thioether N-14)
IC50 ([1]; value given instead of cluster, read-out: CBA IC50 value): 228 nM | IC50 (Human PD-L1/PD-1; value given instead of cluster, read-out: HTRF IC50 value): 13.6 nM

C=CC[C@@H]1NC(=O)[C@H](Cc2c[nH]c3ccccc23)NC(=O)[C@@H]2C[C@@H](O)CN2C(=O)[C@H](CC(C)C)NC(=O)[C@H](Cc2cnc[nH]2)NC(=O)[C@@H]2CCCN2C(=O)[C@H](CC(N)=O)NC(=O)[C@H](C)N(C)C(=O)[C@H](Cc2ccc(O)cc2)NC(=O)CSC[C@@H](C(=O)NCC(N)=O)NC(=O)[C@H](CC=C)NC(=O)[C@H](CCCC)N(C)C(=O)[C@H](CCCC)N(C)C(=O)[C@H](Cc2c[nH]c3ccccc23)NC1=O [Example 7019] ({CH2CO}-Y[NMeA]NPHL[Hyp]W[AllylGly]W[NMeNle][NMeNle][AllylGly]CG-NH2; thioether N-14)
IC50 [1, 2]: 0.158 to 4.71 nM | IC50 (Human PD-L1/PD-1; [3]): 0.385 to 6.74 nM

C=CC[C@@H]1NC(=O)[C@H](Cc2c[nH]c3ccccc23)NC(=O)[C@@H]2CCCN2C(=O)[C@H](CC(C)C)NC(=O)[C@H](Cc2cnc[nH]2)NC(=O)[C@@H]2CCCN2C(=O)[C@H](CC(N)=O)NC(=O)[C@H](C)N(C)C(=O)[C@H](Cc2ccc(O)cc2)NC(=O)CSC[C@@H](C(=O)NCC(N)=O)NC(=O)[C@H](C)NC(=O)[C@H](CCCC)N(C)C(=O)[C@H](CCCC)N(C)C(=O)[C@H](Cc2c[nH]c3ccccc23)NC1=O [Example 7020] ({CH2CO}-Y[NMeA]NPHLPW[AllylGly]W[NMeNle][NMeNle]ACG-NH2; thioether N-14)
IC50 [1, 2]: 4.78 to 72.9 nM | IC50 (Human PD-L1/PD-1; [3]): 0.385 to 6.74 nM

— patent US9850283B2, “Macrocyclic inhibitors of the PD-1/PD-L1 and CD80(B7-1)/PD-L1 protein/protein interactions” (BRISTOL-MYERS SQUIBB COMPANY, priority 2013, dated 2017)
